{"source": "patent US8193225B2", "about": "“Isoxazole amides, derivatives and methods of chemical induction of neurogenesis” (priority 2006, dated 2012)", "key": {"[1]": {"test_system": "MEF2", "assay": "gel shift assay of MEF2 binding to MEF2 response element of NR1 gene", "format": "cell-based, rat", "conditions": "versus vehicle-treated cells", "protocol": "Protein blotting, immunoprecipitation, and gel shift assay. For protein blotting analysis, whole cell lysates were prepared from HCN cells using RIPA buffer (Tris-HCl, 50 mM, pH 7.4; NP-40, 1%; Na-deoxycholate, 0.25%; NaCl, 150 mM; EDTA, 1 mM; PMSF, 1 mM; aprotinin, leupeptin, pepstatin, 1 mg/ml; Na3VO4, 1 mM; NaF, 1 mM). For nuclear and cytoplasmic extracts, HCNs were lysed in hypotonic buffer (Hepes, 10 mM, pH 8; MgCl2, 1.5 mM; KCl, 10 mM; DTT, 1 mM). Nuclei was then isolated and resuspended in the same buffer with NaCl, 420 mM; EDTA, 0.2 mM; glycerol, 25%; NP-40, 1%; PMSF, 1 mM; aprotinin, leupeptin, pepstatin, 1 mg/ml. Protein concentration in centrifugation-clarified cell lysates were measured by the BCA Protein Assay Kit (Pierce) and equal amounts of protein were separated on a 4-12% SDS-PAGE and transferred to Hybond PVDF (Amersham Biosciences). Protein blots were done using the NuPage gel and transfer system with 4-20% Tris-Bis gels (Invitrogen). […]"}, "[2]": {"test_system": "NeuroD-luciferase", "assay": "NeuroD-luciferase reporter in BTSCs", "format": "cell-based, human", "conditions": "after 24 hours, compared to vehicle", "protocol": "(§1) CD133+ glioblastoma brain tumor stem cells (BTSCs) from an explanted human tumor specimen were treated with 20 μM Isx-9 (FIG. 9C) or vol/vol DMSO (vehicle) control (FIG. 9B)."}, "[3]": {"test_system": "human CD133(+) brain tumor stem cells (BTSCs)", "assay": "growth, secondary neurospheres and BrdU uptake of BTSCs", "format": "cell-based", "protocol": "CD133(+) brain tumor stem cells (BTSCs) from an explanted human tumor specimen were treated with EGF/FGF (FIG. 10A) or Isx-9 (20 μM) (FIG. 10B) for 7 days before returning to EGF/FGF (FIG. 10C) or EGF/FGF plus Isx-9 conditions (FIG. 10D) for an additional 2 days.\nThe number and size of neurospheres observed in 7-day pretreated BTSCs with DMSO (vehicle), EGF/FGF, or Isx-9 that were dissociated and re-plated to form secondary neurospheres (1000 cells/well) under various conditions is shown in FIG. 10F."}, "[4]": {"test_system": "neuroD-luciferase", "assay": "neuroD-luciferase reporter gene assay in HCN cells", "format": "cell-based, rat", "conditions": "HCN cells"}, "[5]": {"test_system": "human CD133(+) brain tumor stem cells (BTSCs)", "assay": "differentiation of CD133+ brain tumor stem cells (BTSCs)", "format": "cell-based", "conditions": "20 μM, within 4 days", "protocol": "as §1"}, "[6]": {"test_system": "HCN cells", "assay": "RT-PCR and protein blotting of gene expression in HCN cells", "format": "cell-based, rat"}, "[7]": {"test_system": "human CD133(+) brain tumor stem cells (BTSCs)", "assay": "RT-PCR and protein blotting of gene expression in BTSCs", "format": "cell-based", "source_text": "FIGS. 9A-H—Isoxazoles specifically target the CD133(+) glioblastoma cancer stem cell to adopt a neuronal fate program. […] (FIG. 9B) BTSCs cultured with DMSO (vehicle) (1% vol./vol.). (FIG. 9D) Isx-9-treated BTSCs stained with neuronal markers Tuj1 (red) and Map2ab (green), Dapi-stained nuclei is blue. Scale bar=25 μm. […] (FIGS. 9G and 9H) RT-PCR and protein blotting analysis of gene expression in Isx-9-treated BTSCs. […] GAPDH is used as a normalization control.\nThis activity remained following addition of FGF/EGF without additional Isx-9 addition."}, "[8]": {"test_system": "HCN cells", "assay": "in vitro neuronal differentiation of HCN cells (morphology, Tuj1 staining)", "format": "cell-based, rat"}, "[9]": {"test_system": "HCN cells", "assay": "glial (astrocyte, oligodendrocyte) differentiation of HCN cells/NPCs", "format": "cell-based, rat", "conditions": "4 d cultures"}}, "note": "Entries after “also recorded” stand apart in the source; their conditions may differ.", "data": [{"smiles": "O=C(NC1CC1)c1cc(-c2cccs2)on1", "note": "[Isx-9, N-cyclopropyl-5-(thiophen-2-yl)isoxazole-3-carboxamide]", "values": [{"measurement": "total MEF2 binding to MEF2 response element within the NR1 gene", "setting": "[1]", "value": "similar"}, {"measurement": "activation of NeuroD-luciferase in BTSCs", "setting": "[2]", "value": "Dose-dependent activation"}, {"measurement": "cell attachment and differentiation of BTSCs after growth factor challenge", "setting": "[3]; 7-day exposure, 20 μM", "value": "promotes an irreversible state of cell attachment and differentiation"}, {"measurement": "number and size of secondary neurospheres", "setting": "[3]; 7-day pre-treatment, compared to EGF/FGF pre-treatment", "value": "mediates a decrease in the average number and size of each secondary neurosphere"}, {"measurement": "DNA synthesis/proliferation (BrdU uptake) of BTSCs", "setting": "[3]; 7 days pre-treatment, EGF/FGF added back for 24 hours", "value": "leads to decreased DNA synthesis/proliferation"}, {"measurement": "increase in neuroD luciferase reporter", "setting": "[4]", "value": "≥ 8", "unit": "fold"}, {"measurement": "neuronal differentiation of BTSCs", "setting": "[5]", "value": "triggers a pro neuronal-differentiation effect; also recorded: leads to more differentiated (adherent and phase-dark with neuronal-like processes) cells"}, {"measurement": "MEF2 mRNA levels", "setting": "[6]; 2- and 4-days, compared to vehicle", "value": "up-regulated"}, {"measurement": "expression of SOX2", "setting": "[6]; HCN cells", "value": "decreased expression"}, {"measurement": "neuronal protein expression (protein blotting)", "setting": "[6]; HCN cells/NPCs", "value": "increased Tuj1 protein"}, {"measurement": "MEF2A and MEF2C protein levels", "setting": "[6]; protein blotting time-course, up to 64 hours", "value": "unchanged"}, {"measurement": "CD133 expression in BTSCs", "setting": "[7]", "value": "downregulated"}, {"measurement": "HDAC-4 and -5 protein in BTSCs", "setting": "[7]", "value": "remain relatively unchanged"}, {"measurement": "NRSF expression in BTSCs", "setting": "[7]", "value": "downregulated"}, {"measurement": "NeuroD expression in BTSCs", "setting": "[7]; 2 days", "value": "Up-regulation of NeuroD"}, {"measurement": "overall levels of neuronal proteins (βTujIII, GluR2) in BTSCs", "setting": "[7]; versus control", "value": "do not significantly differ"}, {"measurement": "neuronal differentiation of HCN cells/NPCs", "setting": "[8]; 20 μM, 4 d cultures", "value": "promotes robust neuronal differentiation"}, {"measurement": "Tuj1+ differentiation", "setting": "[8]; HCN cells, by 4 d", "value": "> 50", "unit": "%"}, {"measurement": "gliogenesis / glial differentiation", "setting": "[9]", "value": "dominantly blocks gliogenesis"}]}]}
